Patent US6469055B2, “Compositions and methods for treatment of neurological disorders and neurodegenerative diseases” (Massachusetts Institute of Technology, priority 1996, dated 2002)
“Also recorded” adds a separate entry of the source.

Key:
[1] = test system: APP holoprotein; assay: Cell-associated APP (APP holoprotein), Western blot, cultured cortical astrocytes; conditions: DFU or DFP 10^-9-10^-3 M, 1 h, cultured astrocytes
Experimental: Astrocytes are isolated from cortices from postnatal rats. […] In brief, dissected cortices were dissociated by trypsinization and trituration through a flame-polished Pasteur pipette. Cells were plated onto poly-L-lysine coated 35- or 100 mm culture dishes at densities of about 10-25 cells/mm^2. […] Media are changed twice weekly. […] Pharmacological manipulations are performed in serum-free media on 7-14 DIV confluent astrocytes.
To detect cell-associated protein (APP or GFAP), astrocytes from 35 mm dishes are scraped in lysis buffer (60 mM Tris/HCl, 4% SDS, 20% glycerol, 1 mM dithiothreitol), ultrasonicated and boiled for 5 min. The total amount of cell protein per dish, estimated using the bicinchoninic acid assay, is not altered by pharmacological treatments. Bromphenol blue (0.1%) is added to each sample and equal amounts of protein (˜75 mg/lane) are loaded on 10% SDS-polyacrylamide gels.
The amount of media or cell protein loaded for sodium dodecyl sulfate-polyacrylamide gel electrophoresis (10-20% SDS PAGE; Bio-Rad) was normalized for the amount of protein per sample. […] After 2×10 min rinses in TBST, the membranes were incubated in TBST containing an appropriate antibody. Monoclonal antibodies 22C11 and GFAP (both from Boehringer-Mannheim) were used to detect the N-terminus of APP and glial fibrillary acidic protein respectively; antisera R37 and R98 (gifts of Dr. F. Kametani, Tokyo Institute of Psychiatry) were used to detected the C-terminus and KPI motifs of APP respectively; antiserum C8 (gift of Dr. D. Selkoe, Women's Hospital, Harvard Medical School, Cambridge, Mass.) was used to detect the C-terminus of APP.
After an overnight incubation, membranes were rinsed in TBST before being treated for 1h with a peroxidase-linked secondary antibody. After several rinses in TBST, protein bands were visualized on Kodak X-AR films by an enhanced chemiluminescence method (Amersham). Optical densities of the protein bands were quantitated by laser scanning densitometry (LKB, Bromma, Sweden), and normalized to the densities of those bands generated under control conditions.

[2] = test system: APP holoprotein; assay: APP holoprotein in cultured neurons; format: cell-based; conditions: DFP
Text: (§1) Treatment of cultured astroyctes with DFU (A) or of cultured neurons with DFP (B) promotes APPs secretion and decreases the levels of amyloidogenic APP holoprotein in cultured.

[3] = test system: secreted APP (APPs); assay: APPs secretion into the media of cultured cortical astrocytes, Western blot; format: cell-based, rat; conditions: DFU or DFP 10^-9-10^-3 M, 1 h, cultured astrocytes
Experimental: Astrocytes are isolated from cortices from postnatal rats. […] Media are changed twice weekly.
To detect secreted APP, culture media was collected after drug treatments and phenylmethylsulfonyl fluoride was added to a final concentration of 2 mM. The media samples were then applied to Sephadex PD-10 desalting columns (Pharmacia) and eluted with distilled water. Column eluates were frozen and dried by vacuum centrifugation. The lyophilized proteins were reconstituted in 25 μL water followed by 25 μL of 2X Laemmli gel loading buffer, and boiled for 5 min.
Assays of PI hydrolysis are conducted as previously reported. Also, measurements of APPs are conducted as previously reported.

[4] = test system: secreted APP (APPs); assay: APPs secretion from cultured neurons; format: cell-based; conditions: DFP
Text: as §1

[5] = test system: APP holoprotein; assay: Brain APP holoprotein in rats injected with p-chloroamphetamine (PCA) with or without aspirin; format: in vivo, rat; conditions: rats injected with PCA; striatum or hippocampus
Text: Neuronal injury can stimulate prostaglandin production., and thereby stimulate APP overexpression. We injected rats with para-chloroamphetamine (PCA), a neurotoxin which causes a loss of serotoninergic terminals in the brain.

[6] = test system: serotonin release; assay: Serotonin release in the striatum by microdialysis; format: in vivo, rat; conditions: rats, chronic treatment with PCA
[7] = test system: APP mRNA; conditions: dibutyryl cAMP in serum-containing medium, rat glioma cells; cited from earlier work
[8] = 100-150 mg indomethacin, 6 months, mild or moderately impaired Alzheimer's disease patients; cited from earlier work

CC(C)OC1=C(c2ccc(S(C)(=O)=O)cc2)C(C)(C)OC1=O [DFP, 5,5-dimethyl-3-isopropyloxy-4-(4′-methylsulfonylphenyl)-2(5H)-furanone]
levels of cellular APP holoprotein [1]: decreases
levels of amyloidogenic APP holoprotein [2]: decreases
secretion of soluble APPs [3]: increases
APPs secretion [4]: promotes

CC(N)Cc1ccc(Cl)cc1 (stereo not drawn) [PCA, para-chloroamphetamine]
KPI-containing APP isoforms in brain tissue [5]: increased
brain APP holoprotein levels [5]: increased; also recorded: significant increases
serotonin release in the striatum [6]: compromised

CCCC(=O)Nc1ncnc2c1ncn2[C@@H]1O[C@@H]2COP(=O)(O)O[C@H]2[C@H]1OC(=O)CCC [dibutyryl cAMP]
APP mRNA [7]: increased

COc1ccc2c(c1)c(CC(=O)O)c(C)n2C(=O)c1ccc(Cl)cc1 [indomethacin]
cognitive decline versus placebo, battery of cognitive tests [8]: appeared to protect
